The nature of the test: Binding affinity towards Opioid receptor delta 1 by displacing the radioligand [3H]naltrindole from guinea pig brain membrane.

The structures appear in SMILES notation.

The Ki is a dissociation constant, usually derived from enzyme kinetics or from competition with a known ligand. Low readings indicate tighter binding, high ones weaker binding.

Take `O=C1c2ccc(O)cc2C23CCCCC2C1N(CC1CCCO1)CC3` (stereo not drawn): the Ki stood at 0.001 µM.

Regarding `C[C@H]1C2C(=O)c3ccc(O)cc3[C@@]1(C)CCN2CC1CCCO1` (stereo partly drawn) [8-Hydroxy-6,11-dimethyl-3-(tetrahydro-furan-2-ylmethyl)-3,4,5,6-tetrahydro-2H-2,6-methano-benzo[d]azocin-1-one], the Ki is above 100 µM.

In the case of `O=C1c2ccc(O)cc2C23CCCCC2C1N(CC1CC1)CC3` (stereo not drawn), the Ki was 0.15 µM.

The values above are taken from BindingDB's records for doi:10.1021/jm9903343 (Harvard Medical School, 2000).
